We go through eight compounds from patent US20260015358A1, “BICYCLIC DERIVATIVES, COMPOSITIONS AND USES THEREOF” (Danatlas Pharmaceuticals Co., Ltd., priority 2023, published 2026).

A word on the IC50: it is the concentration that gives 50% inhibition. Read a high IC50 as lower potency.

Sequence of WRN [UniPro: Q14191 (WRN_HUMAN), N500-C946] (Q14191 500-946): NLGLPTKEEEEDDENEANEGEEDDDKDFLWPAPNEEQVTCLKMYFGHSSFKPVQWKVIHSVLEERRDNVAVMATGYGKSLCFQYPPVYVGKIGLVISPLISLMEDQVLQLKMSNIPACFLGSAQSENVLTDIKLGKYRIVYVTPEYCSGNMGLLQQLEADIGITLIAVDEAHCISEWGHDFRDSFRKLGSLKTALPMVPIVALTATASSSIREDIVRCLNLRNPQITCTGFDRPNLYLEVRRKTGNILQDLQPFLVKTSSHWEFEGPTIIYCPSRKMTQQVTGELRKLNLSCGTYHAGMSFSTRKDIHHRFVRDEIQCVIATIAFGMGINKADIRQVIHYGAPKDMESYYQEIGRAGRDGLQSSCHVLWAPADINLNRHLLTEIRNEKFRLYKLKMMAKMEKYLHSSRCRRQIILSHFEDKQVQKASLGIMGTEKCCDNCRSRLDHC

The experiment deals with WRN [UniPro: Q14191 (WRN_HUMAN), N500-C946] (Homo sapiens (Human), UniProt Q14191). Put plainly: WRN unwinding assay (FORKF DNA, fluorescence). In kind it is biochemical. The note with it: Table 14. On the procedure:
WRN unwinding assay was initiated to evaluate potential inhibitory effect of compounds for WEN helicase activity. WRN [UniPro: Q14191 (WRN_HUMAN), N500-C946] was expressed and purified in insect system and stored at −80° C. in aliquots. […] Compounds dissolved in DMSO (Sigma, D8418) were plated into a 96-well intermediate plate (BioFil, VWP-032-096) for 3-fold serial titration for 10 points using DMSO, and well-to-well transfer the titrated compounds into another 96-well intermediate plate including assay buffer in advance. Shake the 96-well intermediate plate at 600 rpm for 10 min. to fully mix. Specifically, a 3× working mixture of WRN was diluted to a concentration of 60 nM in assay buffer. […] After centrifuging at 1000 rpm and shaking at 500 rpm, the assay plate was pre-incubated for 30 min. Then, […] 3×FORKF DNA and ATP working mixture was dispensed into assay plate. Plate was sealed, centrifuged and incubated for an additional 40 min. at 25° C. […] Each concentration of compound was tested in duplicates in the assay plate. Average fluorescence signal of high control (Wells with 1% DMSO) was calculated as High Control (HC). Average fluorescence signal of low control (Wells with no WRN protein) was calculated as Low control (LC).
IC50 values were determined by fitting the data to the standard 4 parameters with Hill Slope using GraphPad Prism software.
Take `CCc1c(N2CC3CN(C(=O)CNC(=O)c4ccccc4F)CC3C2)c(=O)n2nc(C3=CCOCC3)nc2n1CC(=O)Nc1ccc(C(F)(F)F)cc1Cl` (centres unmarked) [Example 140, N-(2-(5-(4-(2-((2-Chloro-4-(trifluoromethyl)phenyl)amino)-2-oxoethyl)-2-(3,6-di hydro-2H-pyran-4-yl)-5-ethyl-7-oxo-4,7-dihydro-[1,2,4]triazolo[1,5-a]pyrimidin-6-yl)hexahydropyrrolo[3,4-c]pyrrol-2(1H)-yl)-2-oxoethyl)-2-fluorobenzamide]: the IC50 was above 1000 nM.

For the compound `O=C(Cn1c(O)c(N2CCN(C(=O)CNC(=O)c3ccccc3)CC2)c(=O)n2nc(C3=CCOCC3)nc12)Nc1ccc(C(F)(F)F)cc1Cl` [Example 142, N-(2-(4-(4-(2-((2-Chloro-4-(trifluoromethyl)phenyl)amino)-2-oxoethyl)-2-(3,6-dihydro-2H-pyran-4-yl)-5-hydroxy-7-oxo-4,7-dihydro-[1,2,4]triazolo[1,5-a]pyrimidin-6-yl)piperazin-1-yl)-2-oxoethyl)benzamide], the IC50 lay in the range of 100 to 1000 nM.

In the case of `CCc1c(N2CCN(C(=O)CNC(=O)c3ccccc3F)CC2)c(=O)n2nc(C3=CCOCC3)nc2n1CC(=O)Nc1ccc(S(F)(F)(F)(F)F)cc1C` [Example 145, N-(2-(4-(2-(3,6-Dihydro-2H-pyran-4-yl)-5-ethyl-4-(2-((2-methyl-4-(pentafluoro-16-sulfanyl)phenyl)amino)-2-oxoethyl)-7-oxo-4,7-dihydro-[1,2,4]triazolo[1,5-a]pyrimidin-6-yl)piperazin-1-yl)-2-oxoethyl)-2-fluorobenzamide], the IC50 lay within 100 to 1000 nM.

Turning to `CCc1c(N2CCN(C(=O)CNC(=O)c3ccccc3F)CC2)c(=O)n2nc(C3=CCOCC3)nc2n1CC(=O)Nc1sc(C)cc1Cl` [Example 151, N-(2-(4-(4-(2-((3-chloro-5-methylthiophen-2-yl)amino)-2-oxoethyl)-2-(3,6-dihydro-2H-pyran-4-yl)-5-ethyl-7-oxo-4,7-dihydro-[1,2,4]triazolo[1,5-a]pyrimidin-6-yl)piperazin-1-yl)-2-oxoethyl)-2-fluorobenzamide], the IC50 fell in the range of 100 to 1000 nM.

In turn, `CCc1c(N2CCN(C(=O)CNC(=O)c3ccccc3F)CC2)c(=O)n2nc(C3=CCOCC3)nc2n1CC(=O)Nc1nnc(C(F)(F)F)s1` [Example 155, N-(2-(4-(2-(3,6-Dihydro-2H-pyran-4-yl)-5-ethyl-7-oxo-4-(2-oxo-2-((5-(trifluoromethyl)-1,3,4-thiadiazol-2-yl)amino)ethyl)-4,7-dihydro-[1,2,4]triazolo[1,5-a]pyrimidin-6-yl)piperazin-1-yl)-2-oxoethyl)-2-fluorobenzamide] registered an IC50 above 1000 nM.

Take `CCc1c(N2CCN(C(=O)CNC(=O)c3ccccc3F)CC2)c(=O)n2nc(C3=CCOCC3)nc2n1CC(=O)Nc1nnc(C2CC2)s1` [Example 156, N-(2-(4-(4-(2-((5-Cyclopropyl-1,3,4-thiadiazol-2-yl)amino)-2-oxoethyl)-2-(3,6-dihydro-2H-pyran-4-yl)-5-ethyl-7-oxo-4,7-dihydro-[1,2,4]triazolo[1,5-a]pyrimidin-6-yl)piperazin-1-yl)-2-oxoethyl)-2-fluorobenzamide]: the IC50 was above 1000 nM.

As for `CCc1c(N2CCN(C(=O)CNC(=O)c3ccccc3F)CC2)c(=O)n2nc(C3=CCOCC3)nc2n1CC(=O)Nc1ncc(C(F)(F)F)s1` [Example 158, N-(2-(4-(2-(3,6-Dihydro-2H-pyran-4-yl)-5-ethyl-7-oxo-4-(2-oxo-2-((5-(trifluoromethyl)thiazol-2-yl)amino)ethyl)-4,7-dihydro-[1,2,4]triazolo[1,5-a]pyrimidin-6-yl)piperazin-1-yl)-2-oxoethyl)-2-fluorobenzamide], the IC50 lay within 100 to 1000 nM.

Take `CCc1c(N2CCN(C(=O)CNC(=O)c3ccccc3F)CC2)c(=O)n2nc(C3=CCOCC3)nc2n1CC(=O)Nc1nc(C)cs1` [Example 159, N-(2-(4-(2-(3,6-Dihydro-2H-pyran-4-yl)-5-ethyl-4-(2-((4-methylthiazol-2-yl)amino)-2-oxoethyl)-7-oxo-4,7-dihydro-[1,2,4]triazolo[1,5-a]pyrimidin-6-yl)piperazin-1-yl)-2-oxoethyl)-2-fluorobenzamide]: the IC50 lay in the range of 100 to 1000 nM.
